Data on 1 substance can be found in patent US7094760B2, “Peptides for treatment of inflammation and shock” (Salpep Biotechnology, Inc., priority 1996, dated 2006).

Entries after “also recorded” stand apart in the source; their conditions may differ.

Test [1] has as its system rats sensitized to hen egg albumin. In words: intestinal anaphylaxis (diarrhoea, disrupted MMCs), egg albumin-sensitized rats, Example 3. To be noted: intravenously. It counts as in vivo, rat. From the text: SGP-T was also effective in preventing intestinal anaphylaxis.
Test [2] concerns LPS (Salmonella typhosa)-induced hypotension in sialadenectomized rats. As to the kind of experiment: endotoxin (LPS)-induced hypotension, sialadenectomized rats. The format is in vivo, rat. As for the experimental part: The animal model of endotoxic shock used involves intravenous injection of endotoxin (3.5 mg/kg of lipopolysaccharide (LPS) from Salmonella typhosa) into pentobarbital-anaesthetized Sprague-Dawley rats, to produce a fall in mean arterial blood pressure within 3 to 5 minutes. The endotoxin was injected slowly over 1 min. via the jugular vein, and mean arterial blood pressure in mm mercury (MABP) was monitored continuously for 60 min, with the average blood pressure being calculated at 15, 30, 45 and 60 min. Studies were performed on unoperated rats and rats with their submandibular glands removed (sialadenectomized).
The results shown in Table 1 are the averages of three different experiments using the protocol defined above. The data shown represent the average decrease in MABP (dec MABP) and the % Decrease in MABP over the 60 minutes following LPS administration. SGP-S (100μg/kg) and SGP-T (100 μg/kg) were administered 90 min. before LPS. […] Neither SGP-T nor SGP-S, when given prior to the LPS challenge, had appreciable effects on MABP.
The dose-response relationship of the inhibitory effect of SGP-T and SGP-S on endotoxin-induced hypotension was also examined and the results are shown in FIG. 1.

In test [3] the test system is ovalbumin-sensitized Sprague-Dawley rats, submandibular glands removed. As to the kind of experiment: anaphylactic hypotension and heart function (VPSP, dP/dt), Example 10. It counts as in vivo, rat. To be noted: for integrated (average) decrease in VPSP over the 30 min: 10 min prior to antigen, saline control 46.2±6.5. As for the experimental part: Methods: Sprague-Dawley rats (200–300 g) were sensitized with 1 mg ovalbumin and 50 ng Pertussin toxin (Sigma) (24) one month prior to experimentation. The submandibular glands were removed bilaterally 7 days prior to the experiment by previously described procedures (23). Rats were anesthetized with sodium pentobarbital (65 mg/kg) and a tracheal tube (PE240 polyethylene tubing) was inserted before performing further surgeries. The jugular vein was-cannulated for injection of ovalbumin antigen, which was given as a bolus (100 μg/kg) over 10 sec. The right carotid artery was cannulated and the cannula tip was slowly advanced into the left ventricle, as detected when diastolic pressure fell to near 0 mmHg. The ventricular cannula was connected to a TXD-310 transducer and heart function parameters were recorded using a Digi-Med Heart Performance Analyser (Micro-Med, Louisville, Ky.). The effects of anaphylaxis on heart function were analysed by comparing the changes in ventricular peak systolic pressure (VPSP), and in the rate of ventricular contraction during systole (dP/dt) and relaxation during distole (−dP/dt). Antigen was injected at 10 min. The anaphylactic response was followed for 30 min.
Very rapidly (within 1 min) after the intravenous injection of antigen into ovalbumin-sensitized rats, VPSP dropped and minimal ventricular pressures were measured at 5 min after initiation of the anaphylactic reaction.
To determine if anaphylaxis directly affected heart function, the percent changes in VPSP were plotted against percent changes in dP/dt and −dP/dt. […] By analysis of variance, the slopes of the regression lines of dP/dt and −dP/dt were not different from unity.

Test [4] concerns jejunal segments from ovalbumin-sensitized rats. In words: antigen-induced jejunal segment contraction, URE/OA ratio, Example 7. Also on record: species or system rat. Here is the method: Animals and Tissue Preparation: Male Sprague-Dawley rats were sensitized to egg albumin (ovalbumin, OA) with 50 ng of Pertussis bordetella toxin as an adjuvant. Four to six weeks after sensitization, the rats were anaethetised with sodium pentobarbital and the jejunum was removed. Two cm sections of the jejunum were mounted in tissue baths under 0.75 g of isometric tension, and the tissues were allowed to equilibrate for 20 min prior to beginning the experiment.
10 μg of SGP-T or one of its analogues or fragments was added to a bath, while control tissues received the saline vehicle. Following a 10 min incubation, 100 ng of OA prepared in 0.9% saline was added. After the tissue had reached a maximal contractile response, the tissues were washed extensively to remove OA and peptide and, after the tissues had established baseline tension, 20 μg of urecholine (URE; a cholinergic-muscarinic receptor agonist) was added to determine the maximal contractile response of the tissue. The tissues were then removed from the bath, cleared of all underlying mucosa and the weight of the remaining muscle was determined.
Data Analysis: The tension (measured in grams) per gram tissue weight generated by each tissue in response to OA and URE was calculated. To normalize for differences in the ability of each tissue segment to contract in response to the muscle stimulants, the contractile response to […]. Thus, a measure of the antigen-induced contraction was expressed as the URE/OA ratio.
The data was analyzed using the one-way analysis of variance (ANOVA) and differences between groups was determined using the Student t-test for unpaired samples. The results are shown in FIGS. 7 and 8 and Tables 3 and 4.

Test [5] has as its system endotoxin-induced fever in rats. In words: endotoxin-induced fever, Example 12. To be noted: late phase (180–420 minutes); injected immediately before ip 150 μg/kg LPS. The format is in vivo, rat. As for the experimental part:
Rats were operated on to remove salivary glands (or controls were sham-operated) one week before challenge with endotoxin. At the time of operation, a temperature sensitive radio transmitter was inserted in the peritoneal cavity. One week after operation, baseline temperatures were recorded by telemetry and SGP-T or saline was injected immediately before intra-peritoneal injection of 150 μg/kg LPS. Temperature was followed for 12 hours. SGP-T suppressed a late phase (180–420 minutes) of endotoxin-induced fever.

Test [6] relates to neutrophil influx into carrageenin-soaked sponge in rats. As to the kind of experiment: neutrophil migration into carrageenin-soaked sponge. The format is in vivo, rat. As for the experimental part: The subcutaneous implantation of a carrageenin-soaked sponge in rats is a model used to evaluate agents that modulate neutrophil chemotaxis, as carrageein is a potent chemotactic agent and the sponge serves as a collecting reservoir.
Under halothane anaesthesia the sponge was removed from its subcutaneous site and the fluid was squeezed from it into a test tube. Following centrifugation at 2,000 g for 10 min, the exudate was decanted and the remaining cells were suspended in 4 ml of 0.9% saline, and their number determined using a Coulter Counter. One ml of the remaining cell suspension was extracted for use in the superoxide assay.
Intravenous injections of SGP-T inhibited neutrophil influx into a carrageenin-soaked sponge in a dose-dependent manner (FIG. 4). When the ability of neutrophils obtained from the carrageenin-soaked sponges to generate superoxide anion was evaluated, those obtained from saline-treated rats were totally refractory to f MLP and phorbol myristate acetate (PMA).

Setting [7] is: peptide 100 μg/kg 90 min before LPS 3.5 mg/kg iv.

For “NH2-Thr-Asp-Ile-Phe-Glu-Gly-Gly-COOH (H-TDIFEGG-OH) [SGP-T, submandibular gland peptide T, TDIFEGG]”, the manifestation of anaphylaxis entry in test [1] (100 μg/kg) is listed as “totally prevented”. For the same substance, the “anaphylactic reactions (diarrhoea, disruption of MMCs)” value in test [1] (doses as low as 10 μg/kg) is “significantly attenuated”. The prevention of shock result in test [2] (doses higher than 10 μg/kg) was “less effective”. Also, in test [2] (doses of 1, 3.5 and 10 μg/kg), the “LPS-provoked drop in blood pressure” value was “significantly prevented”. Further, the “decrease in blood pressure induced by LPS, dose-response” value in test [2] (intravenously 1.5 hours before LPS) was “dose-dependently inhibited”. Further, in test [2] (setting [7]), the “% Dec = percent decrease in MABP relative to MABPbef” value is on record as −36.3 ± 3.3%, the “MABPaft = average MABP for 60 mins after LPS injection” value is given as 77.2 ± 3.9 mm Hg and the “dec MABP = decrease in MABP after LPS relative to MABPbef” value is on record as −46.1 ± 4.9 mm Hg. Moreover, the “integrated (average) decrease in VPSP over the 30 min” value in test [3] (10 μg/kg) was 16.7±8.3 mm Hg. Also, the “integrated (average) decrease in VPSP over the 30 min” value in test [3] (100 μg/kg) stood at 15.9±8.0 mm Hg. The “VPSP by the end of the experiment” value in test [3] (10 and 100 μg/kg, 30 min after antigen) is given as “attained pre-antigen values”. Moreover, in test [3] (FIG. 12), the “initial anaphylactic reaction (initial blood pressure drop)” value is listed as “does not prevent” and the sustained anaphylactic reaction result is “does prevent”. For the same substance, the “drop in blood pressure elicited by the anaphylactic reaction” value in test [3] (doses of 35 and 100 μg/kg) was “significantly reduced”. Further, the “anaphylactic hypotension / decrease in VPSP provoked by antigen” value in test [3] (injected 10 min prior to antigen (100 μg/kg)) was “protected the rats against anaphylactic hypotension; also recorded: reduced significantly”. Moreover, in test [3] (lower (10 μg/kg) and higher (350 μg/kg) doses), the “protection against antigen elicited hypotension” value was “Neither lower (10 μg/kg) nor higher doses (350 μg/kg) of SGP-T protected”. The “reduction of the anaphylactic reaction” value in test [4] (10 μg of peptide) was “more than 50%”. For the same substance, the URE/OA in test [4] (Table 4, 10 μg peptide, 100 ng OA, 20 μg urecholine, saline 5.7 ± 1.0) was found to be 13.9 ± 5.6. In test [5], the endotoxin-induced fever entry was “suppressed”. For the same substance, the “neutrophil influx into a carrageenin-soaked sponge” value in test [6] (intravenous injections) is reported as “inhibited”. For the same substance, in test [6] (rat, in vivo), the “inhibition of neutrophil migration” value was “approximately 50%”.
